Where “and” joins values, the source holds several entries; their conditions need not be identical. Equal values may be shown once.
With `Nc1ccc(I)cc1` [4-iodoaniline] the melting point was 63 °C.
With `CCCCCCCCCCS` [1-decanethiol] the melting point was -26 °C.
Compound `CCOc1ccc(N=C=S)cc1` [4-ethoxyphenyl isothiocyanate] has a melting point of 59 °C.
Work on `COc1ccc2c3c1O[C@H]1[C@@H](O)CC[C@H]4[C@@H](C2)N(C)CC[C@@]341` [Dihydrocodeine] yielded a melting point of 112 °C.
`CC(C)(C)C1=CC(=O)C=C(C(C)(C)C)C1=O` [2,6-di-tert-butyl-p-benzoquinone] gave a melting point of 67 °C.
In the case of `CC1=C(CC(=O)O)c2cc(F)ccc2/C1=C\c1ccc([S+](C)[O-])cc1` (stereo unspecified) [Sulindac], the melting point is reported as 184 °C.
Compound `CCN(CC)CCNC(=O)c1cc(Cl)c(N)cc1OC` [metoclopramide] has a melting point of 147 °C.
`C[C@]12C=CC(=O)C=C1CC[C@@H]1[C@@H]2[C@@H](O)C[C@@]2(C)[C@H]1CC[C@]2(O)C(=O)CO` [Prednisolone] showed a melting point of 240 °C.
With `O=C1CCCCC1` [cyclohexanone] the melting point was -29 °C and -27.9 °C.
In the case of `COc1ccc2c3c1O[C@H]1[C@@H](O)C=C[C@H]4[C@@H](C2)N(C)CC[C@@]341` [Codeine], the melting point is reported as 155 °C.
`CCCCCCCCC(=O)CC` [3-undecanone] gave a melting point of 13 °C.
For `CN(C)c1ccc(C=C/C(=N\Nc2ccccc2)c2ccccc2)cc1`, the melting point was 128 °C.
For `CC(CCc1oc2ccc(C)cc2c1-c1ccc(C)o1)=NO`, the melting point was 104 °C.
In the case of `NS(=O)(=O)c1ccccc1Cl` [2-chlorobenzenesulfonamide], the melting point is reported as 190 °C.
In the case of `CC(C)CCCCC(C)C` [2,7-dimethyloctane], the melting point is reported as -54 °C.
`CCN(O)CC` [N,N-diethylhydroxylamine] gave a melting point of -25 °C.
Compound `Cc1cccc(-c2ccccc2)c1` [1-methyl-3-phenylbenzene] has a melting point of 5 °C.
With `OCC(F)(F)C(F)(F)CO` [2,2,3,3-tetrafluoro-1,4-butanediol] the melting point was 84 °C.
With `O=[N+]([O-])c1ccc(Cl)cc1Cl` [2,4-dichloro-1-nitrobenzene] the melting point was 31 °C.
In the case of `NCCC(c1ccccc1)c1ccccc1` [3,3-diphenylpropylamine], the melting point is reported as 27 °C.
In the case of `OC1COC2C(O)COC12` (stereo unspecified) [1,4:3,6-dianhydrohexitol], the melting point is reported as 61 °C.
Compound `CCOC(=O)CC(C)=O` [Ethyl 3-oxobutanoate] has a melting point of -43 °C.
`OB(O)c1ccccc1C(F)(F)F` [2-(trifluoromethyl)benzeneboronic acid] showed a melting point of 109 °C.
`Clc1ccc(Br)cc1` [p-bromochlorobenzene] showed a melting point of 67 °C.
In the case of `CC(C)[C@@H]1CC[C@@H](C)C[C@H]1O` [L-menthol], the melting point is reported as 44 °C.
`Nc1ccccc1S` [2-aminothiophenol] gave a melting point of 19 °C.
For `CCCC(=O)CCC` [Heptan-4-one], the melting point was -33 °C.
`Oc1cc(Cl)cc(Cl)c1` [3,5-dichlorophenol] showed a melting point of 68 °C.
`O=C1CCCCCCCCCCC1` [cyclododecanone] showed a melting point of 61 °C.
For `OC(c1ccccc1)(c1ccccc1)c1ccccc1` [triphenylmethanol], the melting point was 163 °C.
With `CN(C)c1ccc(/C=C/C=O)cc1` [(2E)-3-[4-(Dimethylamino)phenyl]acrylaldehyde] the melting point was 135 °C.
`CCCCC1=NC2(CCCC2)C(=O)N1Cc1ccc(-c2ccccc2-c2nnn[nH]2)cc1` [irbesartan] showed a melting point of 180 °C.
`C=C(C)c1ccccc1` [alpha-methylstyrene] gave a melting point of -23 °C.
Compound `Cc1ccc(B(O)O)cc1` [4-methylbenzeneboronic acid] has a melting point of 250 °C.
`c1ccc(P(CCCP(c2ccccc2)c2ccccc2)c2ccccc2)cc1` [1,3-bis(diphenylphosphino)propane] gave a melting point of 61 °C.
With `C=CCC1(CC(C)C)C(=O)NC(=O)NC1=O` [BUTALBITAL] the melting point was 138 °C.
With `Nc1ccc(S(=O)(=O)c2ccc(N)cc2)cc1` [dapsone] the melting point was 176 °C.
`Nc1cc(Br)ccc1Br` [2,5-dibromoaniline] gave a melting point of 54 °C.
For `CS(=O)(=O)CCO` [2-(methylsulfonyl)ethanol], the melting point was 29 °C.
`Clc1cccc(Cl)c1Cl` [1,2,3-trichlorobenzene] gave a melting point of 54 °C.
`Cc1ccc(C(C)C)cc1` [1-Isopropyl-4-methylbenzene] gave a melting point of -68 °C.
